The text below walks through data of ChEMBL document CHEMBL1201862, “PubChem BioAssay data set” (2004).

The source made the active and inactive calls. Bounds are passed on as bounds.

Targets include Misshapen-like kinase 1 (Homo sapiens, UniProt Q8N4C8); Focal adhesion kinase 1 (Homo sapiens, UniProt Q05397); Aurora kinase B (Homo sapiens, UniProt Q96GD4).
Format in all cases: functional
For assay [1], the target named is Multidrug resistance protein CDR2 (Candida albicans (strain SC5314 / ATCC MYA-2876) (Yeast), UniProt P78595). Put plainly: CaCDR2 efflux pump inhibitors in yeast, dose response, S. cerevisiae AD1-8u, singleplex, Cherry Pick1 hits (AID 588604).
In assay [2] the target is Melanin-concentrating hormone receptor 1 (Homo sapiens, UniProt Q99705). The assay is described as follows: Late-stage fluorescence-based counterscreen for antagonists of the G-protein coupled receptor 7 (GPR7): cell-based dose response assay to identify antagonists of the melanin-concentrating hormone receptor 1 (MCHR1) Set 5.
Assay [3] concerns the target Neuropeptides B/W receptor type 1 (Homo sapiens, UniProt P48145). Put plainly: GPR7 antagonist potency, late-stage follow-up, cell-based, fluorescence, dose response, set 5 (AID 588566).
Assay [4] deals with Glycogen synthase kinase-3 beta (Homo sapiens, UniProt P49841).
For assay [5], the target named is Calcium/calmodulin-dependent protein kinase type II subunit delta (Homo sapiens, UniProt Q13557).
In assay [6] the target is Serine/threonine-protein kinase pim-1 (Homo sapiens, UniProt P11309).
The target in assay [7] is Dual specificity protein kinase CLK2 (Homo sapiens, UniProt P49760).
For assay [8], the target named is Serine/threonine-protein kinase PAK 4 (Homo sapiens, UniProt O96013).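 Further: value obtained within a kinome profiling panel in which PAK4 was one of the panel members.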
Serine/threonine-protein kinase PAK 4, sequence (O96013 whole entry): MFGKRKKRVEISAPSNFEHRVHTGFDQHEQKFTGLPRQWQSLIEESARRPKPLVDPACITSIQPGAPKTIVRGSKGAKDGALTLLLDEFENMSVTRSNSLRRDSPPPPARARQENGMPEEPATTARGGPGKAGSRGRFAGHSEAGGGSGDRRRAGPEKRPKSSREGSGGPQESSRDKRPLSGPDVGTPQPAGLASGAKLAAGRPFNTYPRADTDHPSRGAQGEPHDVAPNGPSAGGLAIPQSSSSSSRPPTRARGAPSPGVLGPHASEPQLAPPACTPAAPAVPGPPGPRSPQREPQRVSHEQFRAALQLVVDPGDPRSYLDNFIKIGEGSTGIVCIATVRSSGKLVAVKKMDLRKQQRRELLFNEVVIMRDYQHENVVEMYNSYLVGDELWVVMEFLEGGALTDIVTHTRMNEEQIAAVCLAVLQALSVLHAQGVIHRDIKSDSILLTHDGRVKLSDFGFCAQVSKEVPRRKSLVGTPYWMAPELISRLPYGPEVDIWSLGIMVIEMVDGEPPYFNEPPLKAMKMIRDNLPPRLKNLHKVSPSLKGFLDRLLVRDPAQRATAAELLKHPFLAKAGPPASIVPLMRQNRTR
For assay [9], the target named is Serine/threonine-protein kinase 3 (Homo sapiens, UniProt Q13188).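 Further: measured as one member of a kinome-wide kinase panel.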
Assay [10] concerns the target Cyclin-dependent kinase 9 (Homo sapiens, UniProt P50750).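 Further: value from the CDK9 entry of a kinome-spanning kinase panel.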
Assay [11] addresses Receptor-type tyrosine-protein kinase FLT3 (Homo sapiens, UniProt P36888).
For assay [12], the target named is Cyclin-dependent kinase 7 (Homo sapiens, UniProt P50613).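 Further: value comes from a kinome-wide kinase profiling panel in which CDK7 is one member.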
Cyclin-dependent kinase 7, sequence (P50613 whole entry): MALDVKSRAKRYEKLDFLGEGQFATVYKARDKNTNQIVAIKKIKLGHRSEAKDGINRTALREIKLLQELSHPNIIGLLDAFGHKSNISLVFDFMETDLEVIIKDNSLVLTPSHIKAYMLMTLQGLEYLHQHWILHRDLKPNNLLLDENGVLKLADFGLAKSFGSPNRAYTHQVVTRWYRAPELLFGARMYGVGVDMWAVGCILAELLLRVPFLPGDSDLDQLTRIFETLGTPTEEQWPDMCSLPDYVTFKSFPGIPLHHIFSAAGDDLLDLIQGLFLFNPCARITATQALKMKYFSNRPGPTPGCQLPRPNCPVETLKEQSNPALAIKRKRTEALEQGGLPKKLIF
Assay [13] has as its target Serine/threonine-protein kinase D3 (Homo sapiens, UniProt O94806).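 Further: determined within a kinase panel screen, with PRKCN as the panel member.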
Assay [14] concerns the target cAMP-dependent protein kinase catalytic subunit PRKX (Homo sapiens, UniProt P51817).
Assay [15] has as its target Maternal embryonic leucine zipper kinase (Homo sapiens, UniProt Q14680).
In assay [16] the target is Homeodomain-interacting protein kinase 2 (Homo sapiens, UniProt Q9H2X6).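 Further: measured within a kinome-wide kinase profiling panel, HIPK2 being one panel member.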
The target of assay [17] is Cyclin-dependent kinase 8 (Homo sapiens, UniProt P49336). Put plainly: Navigating the Kinome. Panel member name: CDK8.
Cyclin-dependent kinase 8, sequence (P49336 whole entry): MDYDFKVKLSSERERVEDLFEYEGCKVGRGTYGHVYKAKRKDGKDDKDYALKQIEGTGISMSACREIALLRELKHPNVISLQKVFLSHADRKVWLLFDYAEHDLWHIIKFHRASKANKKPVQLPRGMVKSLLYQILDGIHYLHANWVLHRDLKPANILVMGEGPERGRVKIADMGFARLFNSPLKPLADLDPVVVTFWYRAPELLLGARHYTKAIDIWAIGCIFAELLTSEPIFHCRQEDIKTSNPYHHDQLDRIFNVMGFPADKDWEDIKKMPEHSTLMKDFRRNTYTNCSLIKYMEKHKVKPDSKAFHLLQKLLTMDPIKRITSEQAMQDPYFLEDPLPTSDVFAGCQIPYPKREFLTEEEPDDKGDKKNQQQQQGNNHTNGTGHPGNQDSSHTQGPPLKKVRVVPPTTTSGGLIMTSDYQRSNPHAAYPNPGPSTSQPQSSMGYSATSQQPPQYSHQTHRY
Assay [18] has as its target Tyrosine-protein kinase JAK3 (Homo sapiens, UniProt P52333).
For assay [19], the target named is Mitogen-activated protein kinase kinase kinase kinase 5 (Homo sapiens, UniProt Q9Y4K4).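 Further: measured as one member of a kinome-spanning kinase panel.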
The target of assay [20] is Serine/threonine-protein kinase 17A (Homo sapiens, UniProt Q9UEE5).
For assay [21], the target named is Mitogen-activated protein kinase kinase kinase kinase 4 (Homo sapiens, UniProt O95819).
Mitogen-activated protein kinase kinase kinase kinase 4, sequence (O95819 whole entry): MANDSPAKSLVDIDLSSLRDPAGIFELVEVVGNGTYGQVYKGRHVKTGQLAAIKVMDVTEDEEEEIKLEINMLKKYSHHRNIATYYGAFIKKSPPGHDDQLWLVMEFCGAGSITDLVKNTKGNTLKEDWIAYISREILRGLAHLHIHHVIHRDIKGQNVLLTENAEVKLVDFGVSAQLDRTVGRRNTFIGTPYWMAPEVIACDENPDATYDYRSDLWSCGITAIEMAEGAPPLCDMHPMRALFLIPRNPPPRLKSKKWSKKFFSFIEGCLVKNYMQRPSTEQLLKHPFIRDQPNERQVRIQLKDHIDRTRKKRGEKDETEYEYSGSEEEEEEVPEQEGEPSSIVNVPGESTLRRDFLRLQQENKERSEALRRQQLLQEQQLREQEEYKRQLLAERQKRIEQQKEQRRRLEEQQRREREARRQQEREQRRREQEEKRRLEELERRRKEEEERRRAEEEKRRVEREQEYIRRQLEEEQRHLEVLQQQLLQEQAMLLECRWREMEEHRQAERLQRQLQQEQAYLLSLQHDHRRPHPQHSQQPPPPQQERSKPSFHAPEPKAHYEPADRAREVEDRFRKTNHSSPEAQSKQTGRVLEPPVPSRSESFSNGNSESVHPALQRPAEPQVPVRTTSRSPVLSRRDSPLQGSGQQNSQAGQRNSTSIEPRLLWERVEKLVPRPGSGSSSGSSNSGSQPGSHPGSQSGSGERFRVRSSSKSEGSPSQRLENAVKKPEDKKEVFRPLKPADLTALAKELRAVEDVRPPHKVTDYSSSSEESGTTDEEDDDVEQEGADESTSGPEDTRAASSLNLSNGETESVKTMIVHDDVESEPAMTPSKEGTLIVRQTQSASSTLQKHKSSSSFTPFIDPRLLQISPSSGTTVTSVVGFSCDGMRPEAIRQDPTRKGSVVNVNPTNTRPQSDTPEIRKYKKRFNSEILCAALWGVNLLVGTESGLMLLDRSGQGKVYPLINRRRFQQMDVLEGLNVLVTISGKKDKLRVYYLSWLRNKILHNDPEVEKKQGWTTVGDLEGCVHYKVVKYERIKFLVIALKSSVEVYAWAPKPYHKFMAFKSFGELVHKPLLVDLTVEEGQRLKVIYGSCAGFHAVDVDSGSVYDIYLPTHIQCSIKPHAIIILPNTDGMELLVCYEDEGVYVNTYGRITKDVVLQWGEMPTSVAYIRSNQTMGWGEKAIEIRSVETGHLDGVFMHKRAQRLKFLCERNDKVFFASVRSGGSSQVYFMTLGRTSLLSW
The target of assay [22] is Death-associated protein kinase 3 (Homo sapiens, UniProt O43293).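 Further: measured as one member of a kinome-wide profiling panel.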
Death-associated protein kinase 3, sequence (O43293 whole entry): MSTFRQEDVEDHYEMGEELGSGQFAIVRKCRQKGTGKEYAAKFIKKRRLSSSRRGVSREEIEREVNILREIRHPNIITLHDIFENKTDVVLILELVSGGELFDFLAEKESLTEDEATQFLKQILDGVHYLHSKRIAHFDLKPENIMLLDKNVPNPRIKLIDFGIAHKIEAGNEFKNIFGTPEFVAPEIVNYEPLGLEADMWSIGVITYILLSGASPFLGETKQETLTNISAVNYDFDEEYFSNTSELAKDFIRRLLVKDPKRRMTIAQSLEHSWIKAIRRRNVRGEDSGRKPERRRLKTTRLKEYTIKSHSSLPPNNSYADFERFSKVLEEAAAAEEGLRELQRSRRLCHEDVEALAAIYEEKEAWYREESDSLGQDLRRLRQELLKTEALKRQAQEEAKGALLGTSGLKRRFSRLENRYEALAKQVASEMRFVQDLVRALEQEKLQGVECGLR
Assay [23] deals with Tyrosine-protein kinase SYK (Homo sapiens, UniProt P43405).
Assay [24] concerns the target Dual specificity protein kinase CLK4 (Homo sapiens, UniProt Q9HAZ1).
The target of assay [25] is Serine/threonine-protein kinase N2 (Homo sapiens, UniProt Q16513).
The target of assay [26] is cAMP-dependent protein kinase catalytic subunit alpha (Homo sapiens, UniProt P17612).
The target of assay [27] is Casein kinase I isoform alpha (Homo sapiens, UniProt P48729).
Casein kinase I isoform alpha, sequence (P48729 whole entry, canonical isoform): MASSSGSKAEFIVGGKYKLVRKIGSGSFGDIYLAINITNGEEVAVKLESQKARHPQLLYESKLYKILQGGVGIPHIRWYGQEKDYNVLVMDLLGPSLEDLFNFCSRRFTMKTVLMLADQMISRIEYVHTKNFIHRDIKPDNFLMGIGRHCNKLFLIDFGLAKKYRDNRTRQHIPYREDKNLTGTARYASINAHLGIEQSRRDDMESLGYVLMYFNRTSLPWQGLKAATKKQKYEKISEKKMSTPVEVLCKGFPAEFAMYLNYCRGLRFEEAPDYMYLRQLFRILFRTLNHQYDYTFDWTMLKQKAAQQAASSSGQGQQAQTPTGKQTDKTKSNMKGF
The target in assay [28] is Mitogen-activated protein kinase 14 (Homo sapiens, UniProt Q16539).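 Further: part of a kinome-wide panel, MAPK14 entry.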
The target of assay [29] is ALK tyrosine kinase receptor (Homo sapiens, UniProt Q9UM73).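 Further: ALK tested as one member of a kinase panel screen.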
A further assay has as its target Activin receptor type-1 (Homo sapiens, UniProt Q04771). The assay is described as follows: Navigating the Kinome. Panel member name: ACVR1.
Assay [30] concerns the target Tyrosine-protein kinase Fyn (Homo sapiens, UniProt P06241).
Assay [31] concerns the target Serine/threonine-protein kinase Chk1 (Homo sapiens, UniProt O14757).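 Further: measured as one member of a kinome-wide kinase profiling panel.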
The target of assay [32] is Serine/threonine-protein kinase TAO1 (Homo sapiens, UniProt Q7L7X3).
Assay [33] addresses Leukocyte tyrosine kinase receptor (Homo sapiens, UniProt P29376). Put plainly: Navigating the Kinome. Panel member name: LTK.
Assay [34] has as its target G protein-coupled receptor kinase 5 (Homo sapiens, UniProt P34947). Put plainly: Navigating the Kinome. Panel member name: GPRK5.
For assay [35], the target named is Glycogen synthase kinase-3 alpha (Homo sapiens, UniProt P49840).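 Further: GSK3A result taken from a broad kinome-wide kinase panel.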
For another assay, the target named is LIM domain kinase 1 (Homo sapiens, UniProt P53667). The assay is described as follows: Navigating the Kinome. Panel member name: LIMK1.
In assay [36] the target is Tyrosine-protein kinase Lck (Homo sapiens, UniProt P06239).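 Further: lck was assayed as one member of a kinase panel.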
Assay [37] addresses Fibroblast growth factor receptor 1 (Homo sapiens, UniProt P11362).
For assay [38], the target named is Calcium/calmodulin-dependent protein kinase type II subunit alpha (Homo sapiens, UniProt Q9UQM7). The assay is described as follows: Navigating the Kinome. Panel member name: CAMK2A.
Assay [39] addresses Mitogen-activated protein kinase 8 (Homo sapiens, UniProt P45983).
Assay [40] has as its target Tyrosine-protein kinase BTK (Homo sapiens, UniProt Q06187).

Dual specificity protein kinase CLK4, sequence (Q9HAZ1 whole entry): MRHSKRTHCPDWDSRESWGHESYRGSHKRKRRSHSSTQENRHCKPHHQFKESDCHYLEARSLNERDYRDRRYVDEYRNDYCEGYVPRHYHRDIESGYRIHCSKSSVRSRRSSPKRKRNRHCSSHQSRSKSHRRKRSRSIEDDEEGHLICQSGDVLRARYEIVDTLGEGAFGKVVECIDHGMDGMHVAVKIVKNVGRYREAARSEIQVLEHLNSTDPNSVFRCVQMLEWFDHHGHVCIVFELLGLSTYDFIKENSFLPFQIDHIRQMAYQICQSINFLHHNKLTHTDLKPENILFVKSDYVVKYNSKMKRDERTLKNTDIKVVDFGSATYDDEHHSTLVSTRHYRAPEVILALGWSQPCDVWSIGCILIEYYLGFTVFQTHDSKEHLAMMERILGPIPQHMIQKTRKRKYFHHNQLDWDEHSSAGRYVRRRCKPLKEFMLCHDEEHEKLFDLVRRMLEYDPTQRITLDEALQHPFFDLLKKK
Serine/threonine-protein kinase D3, sequence (O94806 whole entry): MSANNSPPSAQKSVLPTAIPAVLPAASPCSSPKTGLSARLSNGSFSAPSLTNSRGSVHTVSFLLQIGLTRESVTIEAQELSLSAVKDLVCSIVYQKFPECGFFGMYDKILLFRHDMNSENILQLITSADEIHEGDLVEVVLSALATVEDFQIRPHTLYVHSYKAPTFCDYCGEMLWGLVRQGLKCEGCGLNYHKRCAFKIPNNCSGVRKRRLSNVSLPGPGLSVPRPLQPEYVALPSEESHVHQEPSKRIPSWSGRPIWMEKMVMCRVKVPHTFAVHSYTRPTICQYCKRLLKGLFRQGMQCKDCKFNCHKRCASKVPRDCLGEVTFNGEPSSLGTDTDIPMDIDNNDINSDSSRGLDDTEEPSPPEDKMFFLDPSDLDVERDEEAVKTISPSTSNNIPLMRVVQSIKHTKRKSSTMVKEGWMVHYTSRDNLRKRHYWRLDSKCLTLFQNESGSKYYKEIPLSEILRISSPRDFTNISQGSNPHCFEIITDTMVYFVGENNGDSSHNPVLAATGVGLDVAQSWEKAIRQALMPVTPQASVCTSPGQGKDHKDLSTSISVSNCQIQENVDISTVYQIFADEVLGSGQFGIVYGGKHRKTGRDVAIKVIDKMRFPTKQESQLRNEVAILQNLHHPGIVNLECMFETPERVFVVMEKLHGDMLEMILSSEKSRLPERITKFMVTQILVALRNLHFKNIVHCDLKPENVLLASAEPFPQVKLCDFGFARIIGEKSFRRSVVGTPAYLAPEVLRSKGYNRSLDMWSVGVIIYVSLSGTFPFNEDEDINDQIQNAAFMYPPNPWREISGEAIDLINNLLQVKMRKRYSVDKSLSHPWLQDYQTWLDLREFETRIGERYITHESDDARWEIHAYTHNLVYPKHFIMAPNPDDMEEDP

`CCCCSC1=N/C(=C/c2ccsc2)C(=O)N1c1ccccc1`: the EC50 (as a rule, the concentration needed to bring the measured effect to its halfway point) in assay [1] was 10.3 µM (active).
As to `O=c1c(Cl)c(Oc2ccc3c(c2)CCO3)cnn1Cc1cccc2ccccc12`, the IC50 (usually the concentration that inhibits the measured activity by half) in [2] is 10.4 µM (inactive); in [3], 3.22 µM (active).
Take `O=C(O)c1ccccc1Nc1ncnc(Nc2ccc3cn[nH]c3c2)n1`: the Ki – broadly, the dissociation constant of the complex between target and ligand, obtained from inhibition or displacement – is 0.0158 µM (active) in [4]; > 2.51 µM (inactive) at Misshapen-like kinase 1; > 3.16 µM (inactive) in assay [5]; 1 µM (active) in [6]; 3.16 µM (active) in assay [7]; 1 µM (active) in [8]. Further, the Ki in assay [9] is 0.501 µM (active); in assay [10], 0.2 µM (active); in assay [11] it was 0.0631 µM (active); in [12] it was 1.58 µM (active); in assay [13] it was 0.398 µM (active); in [14], 1 µM (active). Also, the Ki is 0.158 µM (active) in assay [15]; 0.158 µM (active) in [16]; > 3.98 µM (inactive) in [17]; 1 µM (active) in assay [18]; 2.51 µM (active) in [19]; 0.02 µM (active) in [20]. Besides, the inhibition constant (Ki) is 2 µM (active) in assay [21]; 0.2 µM (active) in assay [22]; 0.501 µM (active) in assay [23]; 0.126 µM (active) in [24]; 2 µM (active) in assay [25]; 3.98 µM (active) in assay [26]. Further, the Ki in assay [27] is 2 µM (active).
As to `CCN(CC)CCNc1ccc(O)c2ccccc12`, the Ki was > 6.31 µM (inactive) at Focal adhesion kinase 1; 2.51 µM (active) in assay [6]; > 3.98 µM (inactive) in assay [28]; > 5.01 µM (inactive) in assay [8]; > 6.31 µM (inactive) in assay [29]; > 3.98 µM (inactive) at Activin receptor type-1. Besides, the Ki in [30] was > 6.31 µM (inactive); in assay [12], > 3.98 µM (inactive); in assay [13] it was > 3.98 µM (inactive); in assay [31], 0.398 µM (active); in assay [32] it was > 6.31 µM (inactive); in assay [33] it was 2 µM (active). Further, the Ki is > 3.98 µM (inactive) in assay [34]; > 3.98 µM (inactive) at Aurora kinase B; > 3.98 µM (inactive) in assay [35]; 0.794 µM (active) on LIM domain kinase 1; > 6.31 µM (inactive) in [36]; > 3.98 µM (inactive) in assay [17]. Besides, the Ki in [18] is > 5.01 µM (inactive); in assay [37], > 3.98 µM (inactive); in assay [38] it was > 3.98 µM (inactive); in [21], > 5.01 µM (inactive); in assay [22], > 5.01 µM (inactive); in [24], 2 µM (active). Moreover, the Ki in assay [39] is > 5.01 µM (inactive); in [27], > 3.98 µM (inactive); in assay [40], > 6.31 µM (inactive).
